Reference: the supplement of paper PMC10307832

Assays:
Experiment in all cases: relative viability (nuclei count vs DMSO), 5 days (fraction); higher = more cells survive
EMC-BAC-2 = system: EMC-BAC-2
Procedure, shortened: (§1)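 Each reported value is a median over duplicate plates. It expresses relative viability: treated-well nuclei count divided by vehicle-well nuclei count. Lung cancer cell lines in 1536-well plates were dosed by pin tool a day after seeding, alone with one drug or with a fixed anchor-drug dose plus five library-drug doses (not always all listed) in √10 steps, and nuclei were counted after 5 days.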

NCI-H1975 = system: NCI-H1975
Procedure, shortened: as §1

NCI-H1792 = system: NCI-H1792
Procedure, shortened: as §1

PC-3 [JPC-3] = system: PC-3 [JPC-3]
Procedure, shortened: as §1

SW 900 = system: SW 900
Procedure, shortened: as §1

NCI-H1666 = system: NCI-H1666
Procedure, shortened: as §1

COR-L 105 = system: COR-L 105
Procedure, shortened: as §1

HCC-366 = system: HCC-366
Procedure, shortened: as §1

NCI-H23 = system: NCI-H23
Procedure, shortened: as §1

NCI-H1734 = system: NCI-H1734
Procedure, shortened: as §1

NCI-H2170 = system: NCI-H2170
Procedure, shortened: as §1

SK-MES-1 = system: SK-MES-1
Procedure, shortened: as §1

NCI-H520 = system: NCI-H520
Procedure, shortened: as §1

A-427 = system: A-427
Procedure, shortened: as §1

LK-2 = system: LK-2
Procedure, shortened: as §1

LOU-NH91 = system: LOU-NH91
Procedure, shortened: as §1

H3255 = system: H3255
Procedure, shortened: as §1

NCI-H1755 = system: NCI-H1755
Procedure, shortened: as §1

EKVX = system: EKVX
Procedure, shortened: as §1

ChaGo-K-1 = system: ChaGo-K-1
Procedure, shortened: as §1

NCI-H441 = system: NCI-H441
Procedure, shortened: as §1

O=C(O)c1ccc(-c2c[nH]c3ncc(-c4ccccc4)cc23)cc1C1CCCC1 + CC(=O)c1c(C)c2cnc(Nc3ccc(N4CCNCC4)cn3)nc2n(C2CCCC2)c1=O [Palbociclib] (partner 0.5 µM) showed a relative viability (EMC-BAC-2; first compound 0.04 µM) of 0.534, a relative viability (EMC-BAC-2; first compound 0.1265 µM) of 0.544 and a relative viability (EMC-BAC-2; first compound 0.4 µM) of 0.529. The relative viability (EMC-BAC-2; first compound 1.265 µM) was 0.519, the relative viability (NCI-H1975; first compound 0.04 µM) was 0.588 and the relative viability (NCI-H1975; first compound 0.1265 µM) was 0.55. It also gave a relative viability (NCI-H1975; first compound 0.4 µM) of 0.585, a relative viability (NCI-H1975; first compound 1.265 µM) of 0.475 and a relative viability (NCI-H1792; first compound 0.1265 µM) of 0.681. It also gave a relative viability (NCI-H1792; first compound 0.4 µM) of 0.657, a relative viability (NCI-H1792; first compound 1.265 µM) of 0.691 and a relative viability (PC-3 [JPC-3]; first compound 0.04 µM) of 0.534. It also gave a relative viability (PC-3 [JPC-3]; first compound 0.1265 µM) of 0.553, a relative viability (PC-3 [JPC-3]; first compound 0.4 µM) of 0.538 and a relative viability (PC-3 [JPC-3]; first compound 1.265 µM) of 0.499. For the same compound, the relative viability (SW 900; first compound 0.04 µM) was 0.523, the relative viability (SW 900; first compound 0.1265 µM) was 0.521 and the relative viability (SW 900; first compound 0.4 µM) was 0.578. It also gave a relative viability (SW 900; first compound 1.265 µM) of 0.277, a relative viability (NCI-H1666; first compound 0.04 µM) of 0.604 and a relative viability (NCI-H1666; first compound 0.1265 µM) of 0.622. The relative viability (NCI-H1666; first compound 0.4 µM) was 0.609, the relative viability (NCI-H1666; first compound 1.265 µM) was 0.547 and the relative viability (COR-L 105; first compound 0.04 µM) was 0.422. The relative viability (COR-L 105; first compound 0.1265 µM) was 0.392, the relative viability (COR-L 105; first compound 0.4 µM) was 0.349 and the relative viability (COR-L 105; first compound 1.265 µM) was 0.411. It also gave a relative viability (HCC-366; first compound 0.04 µM) of 0.442, a relative viability (HCC-366; first compound 0.1265 µM) of 0.43 and a relative viability (HCC-366; first compound 0.4 µM) of 0.416. The relative viability (HCC-366; first compound 1.265 µM) was 0.346, the relative viability (NCI-H23; first compound 0.04 µM) was 0.577 and the relative viability (NCI-H23; first compound 0.1265 µM) was 0.491. For the same compound, the relative viability (NCI-H23; first compound 0.4 µM) was 0.483, the relative viability (NCI-H23; first compound 1.265 µM) was 0.308 and the relative viability (NCI-H1734; first compound 0.04 µM) was 0.324. It also gave a relative viability (NCI-H1734; first compound 0.1265 µM) of 0.328, a relative viability (NCI-H1734; first compound 0.4 µM) of 0.302 and a relative viability (NCI-H1734; first compound 1.265 µM) of 0.344. For the same compound, the relative viability (NCI-H2170; first compound 0.04 µM) was 0.387, the relative viability (NCI-H2170; first compound 0.1265 µM) was 0.438 and the relative viability (NCI-H2170; first compound 0.4 µM) was 0.39. For the same compound, the relative viability (NCI-H2170; first compound 1.265 µM) was 0.389, the relative viability (SK-MES-1; first compound 0.04 µM) was 0.335 and the relative viability (SK-MES-1; first compound 0.1265 µM) was 0.288. It also gave a relative viability (SK-MES-1; first compound 0.4 µM) of 0.303, a relative viability (SK-MES-1; first compound 1.265 µM) of 0.265 and a relative viability (NCI-H520; first compound 0.04 µM) of 0.192. The relative viability (NCI-H520; first compound 0.1265 µM) was 0.217, the relative viability (NCI-H520; first compound 0.4 µM) was 0.226 and the relative viability (NCI-H520; first compound 1.265 µM) was 0.182. For the same compound, the relative viability (A-427; first compound 0.04 µM) was 0.536, the relative viability (A-427; first compound 0.1265 µM) was 0.526 and the relative viability (A-427; first compound 0.4 µM) was 0.485. The relative viability (A-427; first compound 1.265 µM) was 0.48, the relative viability (LK-2; first compound 0.04 µM) was 0.826 and the relative viability (LK-2; first compound 0.1265 µM) was 0.768. It also gave a relative viability (LK-2; first compound 0.4 µM) of 0.771, a relative viability (LK-2; first compound 1.265 µM) of 0.646 and a relative viability (LOU-NH91; first compound 0.04 µM) of 0.593. It also gave a relative viability (LOU-NH91; first compound 0.1265 µM) of 0.517, a relative viability (LOU-NH91; first compound 0.4 µM) of 0.525 and a relative viability (LOU-NH91; first compound 1.265 µM) of 0.469. The relative viability (H3255; first compound 0.04 µM) was 0.303, the relative viability (H3255; first compound 0.1265 µM) was 0.325 and the relative viability (H3255; first compound 0.4 µM) was 0.286. For the same compound, the relative viability (H3255; first compound 1.265 µM) was 0.312, the relative viability (NCI-H1755; first compound 0.04 µM) was 0.434 and the relative viability (NCI-H1755; first compound 0.1265 µM) was 0.495. It also gave a relative viability (NCI-H1755; first compound 0.4 µM) of 0.417, a relative viability (NCI-H1755; first compound 1.265 µM) of 0.48 and a relative viability (EKVX; first compound 0.04 µM) of 0.444. It also gave a relative viability (EKVX; first compound 0.1265 µM) of 0.379, a relative viability (EKVX; first compound 0.4 µM) of 0.233 and a relative viability (EKVX; first compound 1.265 µM) of 0.362. The relative viability (ChaGo-K-1; first compound 0.04 µM) was 0.958, the relative viability (ChaGo-K-1; first compound 0.1265 µM) was 0.966 and the relative viability (ChaGo-K-1; first compound 0.4 µM) was 0.945. It also gave a relative viability (ChaGo-K-1; first compound 1.265 µM) of 0.834, a relative viability (NCI-H441; first compound 0.04 µM) of 0.248 and a relative viability (NCI-H441; first compound 0.1265 µM) of 0.232. The relative viability (NCI-H441; first compound 0.4 µM) was 0.223 and the relative viability (NCI-H441; first compound 1.265 µM) was 0.22.
